Where a name gives a salt, the structure may show the parent alone. Read-outs that look alike come from different tables or passages of the source.

One test deals with T1, human OX2 receptor (Homo sapiens, UniProt O43614).
T1 construct: expressed in transfected cells; host or cells: CHO cells
T1 sequence (O43614 1-444): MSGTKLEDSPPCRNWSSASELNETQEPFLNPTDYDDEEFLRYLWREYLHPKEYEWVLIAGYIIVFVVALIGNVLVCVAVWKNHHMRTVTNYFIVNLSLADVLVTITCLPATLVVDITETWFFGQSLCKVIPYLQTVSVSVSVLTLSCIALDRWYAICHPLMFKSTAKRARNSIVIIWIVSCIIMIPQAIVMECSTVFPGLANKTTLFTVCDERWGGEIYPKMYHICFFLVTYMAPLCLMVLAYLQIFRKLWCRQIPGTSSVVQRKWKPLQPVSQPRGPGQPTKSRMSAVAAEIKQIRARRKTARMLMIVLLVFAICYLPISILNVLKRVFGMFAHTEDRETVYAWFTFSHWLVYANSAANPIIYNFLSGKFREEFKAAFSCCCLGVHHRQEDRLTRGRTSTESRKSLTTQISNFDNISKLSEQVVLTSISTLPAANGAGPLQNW
As to the kind of experiment: Measurement of orexin receptor antagonistic activity (calcium fluorescence, FLIPRtetra). It counts as cell-based. The conditions noted are these: CHO, read-out: Human Orexin2 receptor inhibition (at 10 μM). The method, boiled down:
(§1)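 CHO cells expressing human OX1 or OX2 receptor, cultured one day. Compound in HBSS/20 mM HEPES/0.1% BSA added, then orexin-A at 1 nM final (OX1) or 0.3 nM final (OX2); calcium fluorescence by FLIPRtetra every 1 s for 2 min.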

The target in a further test is T2, human OX1 receptor (Homo sapiens, UniProt O43613).
T2 construct: expressed in transfected cells; host or cells: CHO cells
T2 sequence (O43613 1-425): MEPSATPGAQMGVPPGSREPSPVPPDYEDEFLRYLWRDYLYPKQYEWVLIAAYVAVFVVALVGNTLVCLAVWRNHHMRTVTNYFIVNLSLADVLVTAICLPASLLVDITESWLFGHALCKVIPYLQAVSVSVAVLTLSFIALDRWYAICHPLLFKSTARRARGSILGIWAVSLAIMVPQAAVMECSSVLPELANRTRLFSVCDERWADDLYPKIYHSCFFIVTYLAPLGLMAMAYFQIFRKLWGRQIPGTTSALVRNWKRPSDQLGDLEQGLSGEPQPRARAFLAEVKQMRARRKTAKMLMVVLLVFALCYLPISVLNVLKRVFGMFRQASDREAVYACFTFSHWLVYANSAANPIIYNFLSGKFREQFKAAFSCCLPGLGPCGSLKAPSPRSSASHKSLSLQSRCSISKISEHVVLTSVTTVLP
The test is described as above. It counts as cell-based. The conditions noted are these: CHO, read-out: Human Orexin1 receptor inhibition (at 10 μM). Put shortly: as §1

The mark [1] stands for this setting: 10 μM test compound, CHO cells expressing human OX2 receptor, OX-A 0.3 nM.
Where [2] appears, read: 10 μM test compound, CHO cells expressing human OX1 receptor, OX-A 1 nM.

With `Cc1ccc(-n2nccn2)c(C(=O)N2CCON(c3ncc(C(F)(F)F)cn3)CC2)c1` [Example 9], the inhibition – broadly, the drop in the measured response relative to a control, in per cent – at 10 µM at human OX2 receptor (setting [1]) worked out at 74%; at human OX1 receptor (setting [2]) it was 91%.

As to `Cc1cc(C)nc(N2CCN(C(=O)c3cc(C)ccc3-n3nccn3)[C@H](C)CO2)c1` [Example 142, ((6R)-2-(4,6-dimethylpyridin-2-yl)-6-methyl-1,2,5-oxadiazepan-5-yl) (5-methyl-2-(2H-1,2,3-triazol-2-yl)phenyl)methanone], the inhibition at 10 µM turned out to be 97% at human OX2 receptor and 99% at human OX1 receptor.

As for `Cc1cc(N2C[C@@H](C)N(C(=O)c3ccccc3-n3nccn3)[C@@H](C)CO2)nc(C)n1` [Example 185, ((4R,6S)-2-(2,6-dimethylpyrimidin-4-yl)-4,6-dimethyl-1,2,5-oxadiazepan-5-yl)(2-(2H-1,2,3-triazol-2-yl)phenyl)methanone], the inhibition at 10 µM amounted to 31% on human OX2 receptor (setting [1]) and 22% on human OX1 receptor (setting [2]).

For the compound `Cc1cc(N2CCN(C(=O)c3cc(Cl)ccc3-c3ncccn3)[C@H](C)CO2)nc(C)n1` [Example 195, (5-chloro-2-(pyrimidin-2-yl)phenyl)((6R)-2-(2,6-dimethylpyrimidin-4-yl)-6-methyl-1,2,5-oxadiazepan-5-yl)methanone], the values for the inhibition at 10 µM at human OX2 receptor (setting [1]) and at human OX1 receptor (setting [2]) were 102% and 81%, respectively.

Consider `Cc1cc(N2CCN(C(=O)c3ccccc3-n3nccn3)[C@H](C)CO2)nc(C2(C)CC2)n1` [Example 155, ((6R)-6-methyl-2-(6-methyl-2-(1-methylcyclopropyl)pyrimidin-4-yl-1,2,5-oxadiazepan-5-yl)(2-(2H-1,2,3-triazol-2-yl)phenyl)methanone hydrochloride], for which the inhibition at 10 µM at human OX2 receptor (setting [1]) amounted to 103%; on human OX1 receptor (setting [2]) it was 100%.

`Cc1cc(C)nc(N2CCN(C(=O)c3cccc4nsnc34)CCO2)n1` [Example 73, 2,1,3-benzothiadiazol-4-yl (2-(4,6-dimethylpyrimidin-2-yl)-1,2,5-oxadiazepan-5-yl)methanone]: the inhibition at 10 µM on human OX2 receptor turned out to be 42%; at human OX1 receptor it was 13%.

Take `Cc1cc(N2CCN(C(=O)c3cc(C#N)ccc3-n3nccn3)CCO2)nc(C)n1` [Example 44, 3-((2-(2,6-dimethylpyrimidin-4-yl)-1,2,5-oxadiazepan-5-yl)carbonyl)-4-(2H-1,2,3-triazol-2-yl)benzonitrile]: the inhibition at 10 µM on human OX2 receptor (setting [1]) was 103%; at human OX1 receptor (setting [2]), -16%.

In the case of `Cc1cc(N2CCN(C(=O)c3ccccc3-n3nccn3)[C@H](C)CO2)nc(C(C)(C)C)n1` [Example 154, ((6R)-2-(2-tert-butyl-6-methylpyrimidin-4-yl)-6-methyl-1,2,5-oxadiazepan-5-yl)(2-(2H-1,2,3-triazol-2-yl)phenyl)methanone], the inhibition at 10 µM at human OX2 receptor (setting [1]) was 91%; at human OX1 receptor (setting [2]), 97%.

As to `COc1cccc(F)c1C(=O)N1CCON(c2nc(C)cc(C)n2)CC1` [Example 48, (2-(4,6-dimethylpyrimidin-2-yl)-1,2,5-oxadiazepan-5-yl) (2-fluoro-6-methoxyphenyl) methanone], the inhibition at 10 µM turned out to be 73% at human OX2 receptor (setting [1]) and 10% at human OX1 receptor (setting [2]).

On to `COc1cccc(N2CCN(C(=O)c3ccccc3-c3nccs3)CCO2)n1` [Example 36, (2-(6-methoxypyridin-2-yl)-1,2,5-oxadiazepan-5-yl)(2-(1,3-thiazol-2-yl)phenyl)methanone], for which the values for the inhibition at 10 µM on human OX2 receptor (setting [1]) and at human OX1 receptor (setting [2]) were 100% and 67%, respectively.

For `Cc1cc(N2CCN(C(=O)c3ccccc3-c3cccs3)CCO2)nc(C)n1` [Example 23, (2-(2,6-dimethylpyrimidin-4-yl)-1,2,5-oxadiazepan-5-yl) (2-(2-thienyl)phenyl)methanone hydrochloride], the inhibition at 10 µM worked out at 101% at human OX2 receptor (setting [1]) and 88% at human OX1 receptor (setting [2]).

For the compound `Cc1cc(N2CCN(C(=O)c3ccccc3-c3ncc(F)s3)CCO2)nc(C)n1` [Example 17, (2-(2,6-dimethylpyrimidin-4-yl)-1,2,5-oxadiazepan-5-yl) (2-(5-fluoro-1,3-thiazol-2-yl)phenyl)methanone], the inhibition at 10 µM on human OX2 receptor (setting [1]) came out at 102%; at human OX1 receptor (setting [2]), 41%.

Regarding `Cc1nc(N2CCN(C(=O)c3cc(F)ccc3-n3nccn3)[C@H](C)CO2)nc(C)c1Cl` [Example 167, ((6R)-2-(5-chloro-4,6-dimethylpyrimidin-2-yl)-6-methyl-1,2,5-oxadiazepan-5-yl)(5-fluoro-2-(2H-1,2,3-triazol-2-yl)phenyl)methanone], the inhibition at 10 µM on human OX2 receptor (setting [1]) came out at 98%; at human OX1 receptor (setting [2]), 100%.

Regarding `Cc1nc(N2C[C@H](C)N(C(=O)c3cc(F)ccc3-n3nccn3)[C@H](C)CO2)cc(C(F)(F)F)n1` [Example 181, ((4S,6R)-4,6-dimethyl-2-(2-methyl-6-(trifluoromethyl)pyrimidin-4-yl)-1,2,5-oxadiazepan-5-yl)(5-fluoro-2-(2H-1,2,3-triazol-2-yl)phenyl)methanone], the inhibition at 10 µM on human OX2 receptor (setting [1]) amounted to 83%; at human OX1 receptor (setting [2]), 70%.

Regarding `COc1ccnc(N2CCN(C(=O)c3cc(C)ccc3-n3nccn3)[C@H](C)CO2)c1` [Example 137, ((6R)-2-(4-methoxypyridin-2-yl)-6-methyl-1,2,5-oxadiazepan-5-yl) (5-methyl-2-(2H-1,2,3-triazol-2-yl)phenyl)methanone], the inhibition at 10 µM at human OX2 receptor amounted to 100%; at human OX1 receptor, 93%.

For `Cc1cc(N2CCN(C(=O)c3cc(F)ccc3-n3nccn3)CCO2)nc(C)n1` [Example 14, (2-(2,6-dimethylpyrimidin-4-yl)-1,2,5-oxadiazepan-5-yl)(5-fluoro-2-(2H-1,2,3-triazol-2-yl)phenyl)methanone], the inhibition at 10 µM came to 91% at human OX2 receptor (setting [1]) and 23% on human OX1 receptor (setting [2]).

Turning to `Cc1cc(N2CCN(C(=O)c3cc(F)ccc3-n3cccn3)CCO2)nc(C)n1` [Example 28, (2-(2,6-dimethyl-pyrimidin-4-yl)-1,2,5-oxadiazepan-5-yl) (5-fluoro-2-(1H-pyrazol-1-yl)phenyl) methanone], the inhibition at 10 µM was 74% on human OX2 receptor (setting [1]) and 23% on human OX1 receptor (setting [2]).

In the case of `Cc1ccc(-c2ncccn2)c(C(=O)N2CCN(c3cc(C)nc(C)n3)O[C@@H](C)C2)c1` [Example 196, ((7S)-2-(2,6-dimethylpyrimidin-4-yl)-7-methyl-1,2,5-oxadiazepan-5-yl)(5-methyl-2-(pyrimidin-2-yl)phenyl)methanone], the inhibition at 10 µM on human OX2 receptor (setting [1]) turned out to be 100%; at human OX1 receptor (setting [2]), 89%.

Regarding `Cc1cc(C)nc(N2CCN(C(=O)c3ccccc3-c3nccs3)C[C@H](C)O2)c1` [Example 91, ((7S)-2-(4,6-dimethylpyridin-2-yl)-7-methyl-1,2,5-oxadiazepan-5-yl)(2-(1,3-thiazol-2-yl)phenyl)methanone], the inhibition at 10 µM at human OX2 receptor (setting [1]) and at human OX1 receptor (setting [2]) was 100% throughout.

`Cc1ccc(-n2nccn2)c(C(=O)N2CCON(c3nc(C)cc(-c4ccc(F)cc4)n3)CC2)c1` [Example 12, (2-(4-(4-fluorophenyl)-6-methylpyrimidin-2-yl)-1,2,5-oxadiazepan-5-yl)(5-methyl-2-(2H-1,2,3-triazol-2-yl)phenyl)methanone]: the inhibition at 10 µM at human OX2 receptor (setting [1]) worked out at 93%; at human OX1 receptor (setting [2]), 101%.

Take `Cc1cc(N2CCN(C(=O)c3cc(C(F)(F)F)ccc3-n3nccn3)CCO2)nc(C)n1` [Example 202, (2-(2,6-dimethylpyrimidin-4-yl)-1,2,5-oxadiazepan-5-yl)(2-(2H-1,2,3-triazol-2-yl)-5-(trifluoromethyl)phenyl)methanone]: the figures for the inhibition at 10 µM on human OX2 receptor (setting [1]) and at human OX1 receptor (setting [2]) were 102% and 17%, respectively.

Turning to `COc1cccc(N2CCN(C(=O)c3ccccc3-n3nccn3)[C@H](C)CO2)n1` [Example 157, ((6R)-2-(6-methoxypyridin-2-yl)-6-methyl-1,2,5-oxadiazepan-5-yl)(2-(2H-1,2,3-triazol-2-yl)phenyl)methanone], the inhibition at 10 µM on human OX2 receptor (setting [1]) is 91%; on human OX1 receptor (setting [2]), 93%.

As for `Cc1cc(N2CCN(C(=O)c3ccccc3-c3ncccn3)CCO2)nc(C)n1` [Example 42, (2-(2,6-dimethylpyrimidin-4-yl)-1,2,5-oxadiazepan-5-yl)(2-(pyrimidin-2-yl)phenyl)methanone], the results for the inhibition at 10 µM on human OX2 receptor (setting [1]) and at human OX1 receptor (setting [2]) were 101% and 41%, respectively.

The values above are taken from patent publication US10131653B2, “Heterocyclic compound” (TAKEDA PHARMACEUTICAL COMPANY LIMITED, priority 2015, dated 2018).
